Measurements reported in ChEMBL document CHEMBL1143396, “Additivity in the analysis and design of HIV protease inhibitors” (J Med Chem, 2009).

Target: Human immunodeficiency virus type 1 protease (Human immunodeficiency virus 1, UniProt Q72874, Q7K)
Experiment: Inhibition of HIV1 protease Q7K mutant by FRET method

Compound	Ki (read-out: Ki) [nM]	Ki (read-out: pKi (converted)) [nM]
COc1ccc(S(=O)(=O)N(CC(C)C)C[C@@H](O)[C@H](Cc2ccccc2)NC(=O)/C=C(\C)C(F)(F)F)cc1	0.39	0.389
C/C(=C\C(=O)N(C)[C@@H](Cc1ccccc1)[C@H](O)CN(Cc1cccs1)S(=O)(=O)c1cc(F)c(F)cc1F)C(F)(F)F	52.6	52.5
CC[C@H](C)CN(C[C@@H](O)[C@H](Cc1ccccc1)NC(=O)[C@@H]1CN(c2cccc(C(C)=O)c2)C(=O)O1)S(=O)(=O)c1ccc(OC)cc1	0.232	0.234
CCC(=O)CCC(=O)N[C@@H](Cc1ccccc1)[C@H](O)CN(C[C@H](C)CC)S(=O)(=O)c1ccc2ncsc2c1	0.063	0.0631
COc1ccc(S(=O)(=O)N(CC(C)C)C[C@@H](O)[C@H](Cc2ccccc2)NC(=O)[C@H](C)NC(C)=O)cc1	0.117	0.117
COc1ccc(S(=O)(=O)N(CC(C)C)C[C@@H](O)[C@H](Cc2ccccc2)NC(=O)[C@@H](NC(C)=O)C(C)C)cc1	0.084	0.0832
CNC(=O)CCC(=O)N[C@@H](Cc1ccccc1)[C@H](O)CN(C[C@H](C)O)S(=O)(=O)c1cccc(OC)c1	764	759
Cc1cccc(C(=O)N[C@@H](Cc2ccccc2)[C@H](O)CN(C[C@H](C)O)S(=O)(=O)c2ccco2)n1	> 10000	–
Cc1cccc(OS(=O)(=O)N(C[C@H](C)O)C[C@@H](O)[C@H](Cc2ccccc2)NC(=O)C[C@H]2C=CCC2)c1	13600	13500
CCCCCN(C[C@@H](O)[C@H](Cc1ccccc1)NC(=O)CCC(=O)CC)S(=O)(=O)c1ccc2ncsc2c1	1.62	1.62
COc1ccc(S(=O)(=O)N(CC(C)C)C[C@@H](O)[C@H](Cc2ccccc2)NC(=O)c2cccc(O)c2)cc1	0.14	0.141
CCCCCN(C[C@@H](O)[C@H](Cc1ccccc1)NC(=O)CCC(=O)CC)S(=O)(=O)c1ccc(OC)cc1	4.17	4.17
CCCCCN(C[C@@H](O)[C@H](Cc1ccccc1)NC(=O)c1cccc(O)c1)S(=O)(=O)c1ccc(OC)cc1	1.45	1.45
COc1cccc(S(=O)(=O)N(C[C@@H](O)[C@H](Cc2ccccc2)NC(=O)c2cccc(C)n2)C[C@@H](C)O)c1	12200	12300
CC[C@@H](C)CN(C[C@@H](O)[C@H](Cc1ccccc1)NC(=O)c1cccc(O)c1)S(=O)(=O)c1ccc(OC)cc1	0.117	0.117
CNC(=O)CCC(=O)N[C@@H](Cc1ccccc1)[C@H](O)CN(C[C@H](C)O)S(=O)(=O)c1ccco1	543	537
Cc1cccc(OS(=O)(=O)N(CC2CC2)C[C@@H](O)[C@H](Cc2ccccc2)NC(=O)C[C@H]2C=CCC2)c1	2020	2040
O=C(C[C@H]1C=CCC1)N[C@@H](Cc1ccccc1)[C@H](O)CN(CC1CC1)S(=O)(=O)c1ccco1	> 10000	–
Cc1cccc(OS(=O)(=O)N(C[C@@H](O)[C@H](Cc2ccccc2)NC(=O)C[C@H]2C=CCC2)C[C@@H](C)O)c1	> 10000	–
C[C@H](O)CN(C[C@@H](O)[C@H](Cc1ccccc1)NC(=O)C[C@H]1C=CCC1)S(=O)(=O)c1ccco1	259	257
CCC(=O)CCC(=O)N[C@@H](Cc1ccccc1)[C@H](O)CN(CC(C)C)S(=O)(=O)c1ccc(OC)cc1	0.24	0.24

Compound	Ki (read-out: Ki) [nM]	Ki (read-out: pKi (converted)) [nM]
CCC(=O)CCC(=O)N[C@@H](Cc1ccccc1)[C@H](O)CN(CC(C)C)S(=O)(=O)c1ccc2ncsc2c1	0.12	0.12
COc1cccc(S(=O)(=O)N(C[C@H]2CCCO2)C[C@@H](O)[C@H](Cc2ccccc2)NC(=O)[C@@H]2CN(c3cccc(F)c3)C(=O)O2)c1	150	151
CCCCCN(C[C@@H](O)[C@H](Cc1ccccc1)NC(=O)c1cccc(O)c1)S(=O)(=O)c1ccc2ncsc2c1	0.309	0.309
CC(=O)N[C@H](C(=O)N[C@@H](Cc1ccccc1)[C@H](O)CN(CC(C)C)S(=O)(=O)c1ccc2ncsc2c1)C(C)C	0.099	0.1
CCCCCN(C[C@@H](O)[C@H](Cc1ccccc1)NC(=O)[C@@H](NC(C)=O)C(C)C)S(=O)(=O)c1ccc(OC)cc1	0.038	0.038
CC[C@H](C)CN(C[C@@H](O)[C@H](Cc1ccccc1)NC(=O)c1ccc(O)c(O)c1)S(=O)(=O)c1ccc(OC)cc1	0.38	0.38
COc1cccc(S(=O)(=O)N(Cc2cccs2)C[C@@H](O)[C@H](Cc2ccccc2)NC(=O)c2cc(O)c(O)c(O)c2)c1	1150	1150
COc1cccc(S(=O)(=O)N(Cc2cccs2)C[C@@H](O)[C@H](Cc2ccccc2)NC(=O)[C@H]2CCCC[C@@H]2C)c1	582	589
O=C(Cc1cccs1)N[C@@H](Cc1ccccc1)[C@H](O)CN(Cc1cccs1)S(=O)(=O)c1cc(F)c(F)cc1F	2360	2340
COc1cccc(S(=O)(=O)N(Cc2cccs2)C[C@@H](O)[C@H](Cc2ccccc2)Nc2cc(F)c(F)c(O)c2F)c1	515	513
O=C(N[C@@H](Cc1ccccc1)[C@H](O)CN(Cc1cccs1)S(=O)(=O)c1cc(F)c(F)cc1F)c1ccnnc1	1060	1070
CC[C@@H](C)CN(C[C@@H](O)[C@H](Cc1ccccc1)NC(=O)[C@@H](NC(C)=O)C(C)C)S(=O)(=O)c1ccc2ncsc2c1	0.057	0.0575
COc1ccc(S(=O)(=O)N(CC(C)C)C[C@@H](O)[C@H](Cc2ccccc2)NC(=O)/C=C/C(C)=O)cc1	0.17	0.17
CC(=O)/C=C/C(=O)N[C@@H](Cc1ccccc1)[C@H](O)CN(Cc1cccs1)S(=O)(=O)c1cc(F)c(F)cc1F	610	617
CCCCCN(C[C@@H](O)[C@H](Cc1ccccc1)NC(=O)C[C@@H](O)CC)S(=O)(=O)c1ccc(OC)cc1	0.86	0.851
CCCCCN(C[C@@H](O)[C@H](Cc1ccccc1)NC(=O)[C@@H](O)C(C)C)S(=O)(=O)c1ccc(OC)cc1	2.48	2.45
CC[C@H](O)CC(=O)N[C@@H](Cc1ccccc1)[C@H](O)CN(CC(C)C)S(=O)(=O)c1ccc(OC)cc1	0.37	0.372
CCCCCN(C[C@@H](O)[C@H](Cc1ccccc1)NC(=O)[C@@H](O)C(C)C)S(=O)(=O)c1ccc2ncsc2c1	0.82	0.813
CC[C@H](O)CC(=O)N[C@@H](Cc1ccccc1)[C@H](O)CN(CC(C)C)S(=O)(=O)c1ccc2ncsc2c1	0.134	0.135
COc1ccc(S(=O)(=O)N(CC(C)C)C[C@@H](O)[C@H](Cc2ccccc2)NC(=O)C2(C(N)=O)CC2)cc1	0.173	0.174
CC[C@@H](C)CN(C[C@@H](O)[C@H](Cc1ccccc1)NC(=O)[C@@H](O)C(C)C)S(=O)(=O)c1ccc(OC)cc1	0.617	0.617

Compound	Ki (read-out: Ki) [nM]	Ki (read-out: pKi (converted)) [nM]
CC[C@@H](C)CN(C[C@@H](O)[C@H](Cc1ccccc1)NC(=O)C[C@@H](O)CC)S(=O)(=O)c1ccc(OC)cc1	0.34	0.339
COc1ccc(S(=O)(=O)N(CC(C)C)C[C@@H](O)[C@H](Cc2ccccc2)Nc2cccc(F)c2C)cc1	0.093	0.0933
CC[C@@H](C)CN(C[C@@H](O)[C@H](Cc1ccccc1)NC(=O)C[C@@H](O)CC)S(=O)(=O)c1ccc2ncsc2c1	0.067	0.0676
CCCCCN(C[C@@H](O)[C@H](Cc1ccccc1)NC(=O)C1(C(N)=O)CC1)S(=O)(=O)c1ccc(OC)cc1	0.79	0.794
CCCCCN(C[C@@H](O)[C@H](Cc1ccccc1)NC(=O)C1(C(N)=O)CC1)S(=O)(=O)c1ccc2ncsc2c1	0.21	0.209
CC[C@@H](C)CN(C[C@@H](O)[C@H](Cc1ccccc1)NC(=O)C1(C(N)=O)CC1)S(=O)(=O)c1ccc(OC)cc1	0.21	–
CNC(=O)CCC(=O)N[C@@H](Cc1ccccc1)[C@H](O)CN(C[C@@H](C)O)S(=O)(=O)c1cccc(OC)c1	1170	1170
CCCCCN(C[C@@H](O)[C@H](Cc1ccccc1)NC(=O)C[C@@H](O)CC)S(=O)(=O)c1ccc2ncsc2c1	0.7	0.708
CC(C)CN(C[C@@H](O)[C@H](Cc1ccccc1)NC(=O)[C@@H](O)C(C)C)S(=O)(=O)c1ccc2ncsc2c1	0.29	0.288
CC[C@H](C)CN(C[C@@H](O)[C@H](Cc1ccccc1)NC(=O)[C@@H]1CN(c2cccc(C(C)=O)c2)C(=O)O1)S(=O)(=O)c1ccc2ncsc2c1	0.019	0.0191
COc1cccc(S(=O)(=O)N(C[C@H]2CCCO2)C[C@@H](O)[C@H](Cc2ccccc2)NC(=O)[C@@H]2CN(c3ccccc3)C(=O)O2)c1	42	41.7
CC[C@@H](C)CN(C[C@@H](O)[C@H](Cc1ccccc1)NC(=O)[C@@H](NC(C)=O)C(C)C)S(=O)(=O)c1ccc(OC)cc1	0.033	0.0331
Cc1cccc(C(=O)N[C@@H](Cc2ccccc2)[C@H](O)CN(CC2CC2)S(=O)(=O)c2ccco2)n1	> 10000	–
COc1cccc(S(=O)(=O)N(C[C@H](C)O)C[C@@H](O)[C@H](Cc2ccccc2)NC(=O)c2cccc(C)n2)c1	4760	4790
Cc1oncc1S(=O)(=O)N(Cc1cccs1)C[C@@H](O)[C@H](Cc1ccccc1)NC(=O)/C=C/C(C)C(F)(F)F (some centres undefined)	13200	13200
CC[C@H](C)CN(C[C@@H](O)[C@H](Cc1ccccc1)NC(=O)c1cccc(F)c1C)S(=O)(=O)c1ccc2ncsc2c1	0.033	0.0331
CC[C@H](C)CN(C[C@@H](O)[C@H](Cc1ccccc1)NC(=O)[C@H](C)NC(C)=O)S(=O)(=O)c1ccc(OC)cc1	0.046	0.0457
CC(C)CN(C[C@@H](O)[C@H](Cc1ccccc1)NC(=O)C1(C(N)=O)CC1)S(=O)(=O)c1ccc2ncsc2c1	0.115	0.115
COc1ccc(S(=O)(=O)N(CC(C)C)C[C@@H](O)[C@H](Cc2ccccc2)NC(=O)[C@@H](O)C(C)C)cc1	1.88	1.86
CC[C@@H](C)CN(C[C@@H](O)[C@H](Cc1ccccc1)NC(=O)C1(C(N)=O)CC1)S(=O)(=O)c1ccc2ncsc2c1	0.132	0.132
